Test results as given in patent publication US8980933B2, “Combretastatin analogs for use in the treatment of cancer” (Universitat Bayreuth, priority 2010, dated 2015).

How the values were obtained:
Format in all cases: cell-based, human
518A2 cells [1] = test: Mitochondrial membrane assay (JC-1), 518A2; conditions: 5 μM, red/green fluorescence ratio relative to untreated controls (100%), mean ± SD
Protocol: (§1) Values represent means of four independent experiments±standard deviation.
(§2) Changes in mitochondrial membrane potential were determined by the Mitochondrial Membrane Detection Kit (Stratagene, La Jolla, Calif., USA) according to the manufacturer's procedure. 72 h following treatment with 5 μM of the test compounds, cell samples were centrifuged at 400 g for 5 min. The pellets were resuspended in 500 μL diluted JC-1 solution, incubated at 37° C. for 15 min (HL-60) and then centrifuged again for 5 min at 400 g. After washing, the pellets were resuspended in 100 μL PBS and transferred into the wells of a black 96-well plate. The red (λex=585 nm, λem=590 nm) and green (λex=510 nm, λem=527 nm) fluorescence intensities were measured and their ratio was calculated.

HL-60 cells [2] = test: Mitochondrial membrane assay (JC-1), HL-60; conditions: 5 μM, red/green fluorescence ratio relative to untreated controls (100%), mean ± SD
Protocol: as §1, §2

HL-60 cells [3] = test: ROS generation, NBT assay, HL-60; conditions: 50 μM, relative to untreated controls (1%), mean ± SD
Protocol: (§3) The generation of reactive oxygen species (ROS) in tumor cells is a sign of cellular stress resulting in severe damage of cellular components such as DNA, lipids or proteins.
(§4) For the NBT assay, HL-60 cells (0.5·10^6/mL) were plated in 96-well tissue culture plates, and test compounds were added after 24 h incubation at 37° C. to achieve a final concentration of 50 μM. […] After removal of the cell medium by centrifugation, the cells in each well were resuspended in 100 μL 0.1% NBT, and the plates were placed in the incubator for 1 h. The reduced NBT was solubilized with 100 μl 2 M KOH and 130 μl DMSO for 30 min. The absorbance was measured for each well at 630 and 405 nm (background) using an ELISA plate reader. The adherent 518A2 cells (0.5·10^4/mL) were seeded out in 96-well tissue culture plates after trypsinization and incubation for 24 h at 37° C. to allow attachment, then treated similarly, only that the medium was removed prior to incubation with NBT for 4 h. All experiments were carried out in quadruplicate.

518A2 cells [4] = test: ROS generation, NBT assay, 518A2; conditions: 50 μM, relative to untreated controls (1%), mean ± SD
Protocol: as §3, §4

[5] = test system: MCF-7/Topo breast carcinoma cells; test: MTT cell growth inhibition, MCF-7/Topo; conditions: MCF-7/Topo (BCRP+)
Protocol: The effects of the compounds 5b, 6b, 8a, and 8e according to the present invention and of the reference compound 25f (Wang et al., J. Med. Chem. 2002, 45, 1697-1711) on cells of the following human tumor cell lines were evaluated: 518A2 melanoma, HL-60 leukemia, HT-29 colon carcinoma, KB-V1/Vbl cervical carcinoma, and MCF-7/Topo breast carcinoma.
The HL-60 cells were obtained from the German Collection of Biological Material (DSMZ), Braunschweig, Germany; the human 518A2 melanoma cells as well as the testicular germ cell tumor cell lines H12.1 and 1411HP were cultured in the department of oncology and hematology, Medical Faculty of the Martin-Luther University, Halle, Germany; the KBV1/Vbl and the MCF-7/Topo cells were obtained from the Institute of Pharmacy of the University Regensburg, Germany; and the colon HT-29 cells from the University Hospital Erlangen, Germany. The HL-60 and the HT-29 cells were grown in RPMI-1640 medium supplemented with 10% fetal calf serum (FCS), 100 IU/mL penicillin G, 100 μg/mL streptomycin sulfate, 0.25 μg/mL amphotericin B and 250 μg/mL gentamycine (all from Gibco, Egenstein, Germany). The 518A2 and the KB-V1/Vbl cells were cultured in Dulbecco's Modified Eagle Medium (D-MEM, Gibco) containing 10% FCS, 100 IU/mL penicillin G, 100 μg/mL streptomycin sulfate, 0.25 μg/mL amphotericin B and 250 μg/mL gentamycine. The MCF-7/Topo cells were grown in E-MEM medium (Sigma) supplemented with 2.2 g/L NaHCO3, 110 mg/L sodium pyruvate and 5% FCS. The cells were maintained in a moisture-saturated atmosphere (5% CO2) at 37° C. in 75-mL culture flasks (Nunc, Wiesbaden, Germany). They were serially passaged following trypsinisation by 0.05% trypsin/0.02% EDTA (PAA laboratories, Clbe, Germany). Mycoplasma contamination was routinely monitored, and only mycoplasma-free cultures were used.
MTT [3-(4,5-dimethylthiazol-2-yl)-2,5-diphenyltetrazolium bromide](ABCR) was used to identify viable cells which reduce it to a violet formazan (Mosmann, J. Immunol. Methods 1983, 65, 55-63). HL-60 leukemia cells (5×10^5/mL), and cells (5×10^4/mL) of 518A2 melanoma, HT-29 colon, KB-V1/Vbl cervix and MCF-7/Topo breast carcinoma were seeded out in 96-well tissue culture plates and cultured for 24 h. Incubation (5% CO2, 95% humidity, 37° C.) of the cells following treatment with the test compounds was continued for 24, 48 or 72 h. Blank and solvent controls were treated identically. […] The microplates were gently shaken in the dark for 30 min and absorbance at 570 nm and 630 nm (background) was measured with an ELISA plate reader. All experiments were carried out in quadruplicate; the percentage of viable cells was calculated as the mean±SD with controls set to 100%.

[6] = test system: KB-V1/Vbl cervical carcinoma cells; test: MTT cell growth inhibition, KB-V1/Vbl; conditions: KB-V1/Vbl (Pgp+)
Protocol: The MCF-7/Topo cells were grown in E-MEM medium (Sigma) supplemented with 2.2 g/L NaHCO3, 110 mg/L sodium pyruvate and 5% FCS. The cells were maintained in a moisture-saturated atmosphere (5% CO2) at 37° C. in 75-mL culture flasks (Nunc, Wiesbaden, Germany). They were serially passaged following trypsinisation by 0.05% trypsin/0.02% EDTA (PAA laboratories, Clbe, Germany). Mycoplasma contamination was routinely monitored, and only mycoplasma-free cultures were used.
HL-60 leukemia cells (5×10^5/mL), and cells (5×10^4/mL) of 518A2 melanoma, HT-29 colon, KB-V1/Vbl cervix and MCF-7/Topo breast carcinoma were seeded out in 96-well tissue culture plates and cultured for 24 h. […] Blank and solvent controls were treated identically. MTT in phosphate buffered saline (5 mg/mL) was added to a final concentration of 0.05% (HL-60, 518A2) or 0.1% (HT-29, KB-V1/Vbl, MCF-7/Topo). After 2 h the formazan precipitate was dissolved in 10% sodium dodecylsulfate in DMSO containing 0.6% acetic acid in the case of the HL-60 cells. For the adherent 518A2, KB-V1/Vbl, MCF-7/Topo and HT-29 cells the microplates were swiftly turned to discard the medium before adding the solvent mixture. The microplates were gently shaken in the dark for 30 min and absorbance at 570 nm and 630 nm (background) was measured with an ELISA plate reader. All experiments were carried out in quadruplicate; the percentage of viable cells was calculated as the mean±SD with controls set to 100%.

| SMILES | Intact mitochondria [%] in 518A2 cells after 72 h (518A2 cells [1]) [%] | Intact mitochondria [%] in HL-60 cells after 72 h (HL-60 cells [2]) [%] | NBT Reduction [%] in HL-60 cells after 24 h (HL-60 cells [3]) [%] | NBT Reduction [%] in 518A2 cells after 24 h (518A2 cells [4]) [%] | cytotoxicity / efficacy (comparison) [5] | efficacy (comparison) [6] |
| --- | --- | --- | --- | --- | --- | --- |
| COc1ccc(-c2c(-c3cc(Br)c(OC)c(OC)c3)ncn2C)cc1F [compound 6c, 1-Methyl-4-(3′-bromo-4′,5′-dimethoxyphenyl)-5-(3″-fluoro-4″-methoxyphenyl)-imidazole] | 89 ± 10 | 60 ± 15 | 3.9 ± 0.1 | 1.4 ± 0.3 | – | – |
| COc1ccc(-c2c(-c3cc(Cl)c(OC)c(OC)c3)ncn2C)cc1F [compound 5c, 1-Methyl-4-(3′-chloro-4′,5′-dimethoxyphenyl)-5-(3″-fluoro-4-methoxyphenyl)-imidazole] | 84 ± 6 | 55 ± 7 | 4.8 ± 0.5 | 1.6 ± 0.1 | – | – |
| COc1cc(-c2ncn(C)c2-c2ccc(N(C)C)cc2)cc(Br)c1OC [compound 6d, 1-Methyl-4-(3′-bromo-4′,5′-dimethoxyphenyl)-5-(4″-N,N-dimethylaminophenyl)-imidazole] | 82 ± 7 | 63 ± 13 | 6.7 ± 0.8 | 1.6 ± 0.3 | – | – |
| COc1ccc(-c2c(-c3cc(N)c(OC)c(OC)c3)ncn2C)cc1O [8c, 1-Methyl-4-(3′-amino-4′,5′-dimethoxyphenyl)-5-(3″-hydroxy-4-methoxyphenyl)-imidazole] | 94 ± 7 | 76 ± 19 | 1.8 ± 0.3 | 1.1 ± 0.0 | – | – |
| COc1cc(-c2ncn(C)c2-c2ccc(N(C)C)cc2)cc(Cl)c1OC [compound 5d, 1-Methyl-4-(3′-chloro-4′,5′-dimethoxyphenyl)-5-(4″-N,N-dimethylaminophenyl)-imidazole] | 80 ± 7 | 61 ± 13 | 6.0 ± 0.9 | 2.4 ± 0.4 | – | – |
| COc1cc(-c2ncoc2-c2ccc(N(C)C)cc2)cc(N)c1OC [8b, 4-(3′-Amino-4′,5′-dimethoxyphenyl)-5-(4″-N,N-dimethylaminophenyl)-oxazole] | 82 ± 8 | 62 ± 12 | 3.3 ± 0.2 | 1.4 ± 0.3 | – | – |
| COc1cc(-c2ncn(C)c2-c2ccc3c(c2)c(Cl)cn3C)cc(N)c1OC [compound 8e, 1-methyl-4-(3-amino-4,5-dimethoxyphenyl)-5-(N-methyl-3-chloroindol-5-yl)-imidazole] | 77 ± 8 | 60 ± 15 | 6.4 ± 0.3 | 1.6 ± 0.3 | greater efficacy than 25f and 5b/6b | greater efficacy than 25f and 5b/6b |
| COc1ccc(-c2c(-c3cc(N)c(OC)c(OC)c3)ncn2C)cc1F [8d, 1-Methyl-4-(3′-amino-4′,5′-dimethoxyphenyl)-5-(3″-fluoro-4-methoxyphenyl)-imidazole] | 98 ± 15 | 90 ± 22 | 1.4 ± 0.2 | 1.2 ± 0.1 | – | – |
